Earlier results, collected in patent US20250255875A1, “BIFUNCTIONAL CHIMERIC MOLECULES FOR LABELING OF KINASES WITH TARGET BINDING MOIETIES AND METHODS OF USE THEREOF” (The Brigham and Women's Hospital, Inc., priority 2022, published 2025).

Assays:
[1] = system: NF-…B Pathway
[2] = biological target: T1, Recombinant PK… (PKCζ) (Homo sapiens, UniProt Q05513)
T1 sequence (Q05513 1-592): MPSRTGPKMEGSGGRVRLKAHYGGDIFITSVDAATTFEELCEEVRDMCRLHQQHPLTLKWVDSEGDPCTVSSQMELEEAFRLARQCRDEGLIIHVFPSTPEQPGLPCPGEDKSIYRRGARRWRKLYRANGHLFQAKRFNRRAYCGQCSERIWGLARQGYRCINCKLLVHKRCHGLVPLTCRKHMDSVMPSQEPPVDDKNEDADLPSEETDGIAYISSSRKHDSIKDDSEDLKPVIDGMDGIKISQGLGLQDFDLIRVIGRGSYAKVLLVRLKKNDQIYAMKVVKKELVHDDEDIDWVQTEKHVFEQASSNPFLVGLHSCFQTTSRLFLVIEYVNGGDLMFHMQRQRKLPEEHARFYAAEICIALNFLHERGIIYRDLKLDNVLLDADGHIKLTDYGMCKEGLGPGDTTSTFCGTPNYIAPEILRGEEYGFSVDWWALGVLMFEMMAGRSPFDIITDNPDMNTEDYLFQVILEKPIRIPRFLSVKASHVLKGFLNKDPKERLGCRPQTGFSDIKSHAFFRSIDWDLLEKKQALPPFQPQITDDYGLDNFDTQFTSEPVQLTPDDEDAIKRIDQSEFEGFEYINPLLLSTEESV

[3] = system: NF-kB; details: mice
[4] = system: mutant EGFR; details: 0.01-10 uM
[5] = system: MERS-COV; details: in vitro
[6] = biological target: p38α MAPK (Homo sapiens, UniProt Q16539)
p38α MAPK, sequence (Q16539 whole entry): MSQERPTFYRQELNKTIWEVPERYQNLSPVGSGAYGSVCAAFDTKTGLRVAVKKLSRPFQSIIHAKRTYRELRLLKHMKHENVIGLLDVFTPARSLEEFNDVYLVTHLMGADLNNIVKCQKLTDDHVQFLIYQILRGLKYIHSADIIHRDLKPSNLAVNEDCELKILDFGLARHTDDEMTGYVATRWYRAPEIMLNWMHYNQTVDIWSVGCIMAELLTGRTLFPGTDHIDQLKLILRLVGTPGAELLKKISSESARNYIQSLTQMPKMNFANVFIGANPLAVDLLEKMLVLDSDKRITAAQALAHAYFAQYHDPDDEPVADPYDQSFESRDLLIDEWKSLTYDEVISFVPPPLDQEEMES

[7] = biological target: c-Met (Homo sapiens, UniProt P08581)
c-Met, sequence (P08581 25-1390): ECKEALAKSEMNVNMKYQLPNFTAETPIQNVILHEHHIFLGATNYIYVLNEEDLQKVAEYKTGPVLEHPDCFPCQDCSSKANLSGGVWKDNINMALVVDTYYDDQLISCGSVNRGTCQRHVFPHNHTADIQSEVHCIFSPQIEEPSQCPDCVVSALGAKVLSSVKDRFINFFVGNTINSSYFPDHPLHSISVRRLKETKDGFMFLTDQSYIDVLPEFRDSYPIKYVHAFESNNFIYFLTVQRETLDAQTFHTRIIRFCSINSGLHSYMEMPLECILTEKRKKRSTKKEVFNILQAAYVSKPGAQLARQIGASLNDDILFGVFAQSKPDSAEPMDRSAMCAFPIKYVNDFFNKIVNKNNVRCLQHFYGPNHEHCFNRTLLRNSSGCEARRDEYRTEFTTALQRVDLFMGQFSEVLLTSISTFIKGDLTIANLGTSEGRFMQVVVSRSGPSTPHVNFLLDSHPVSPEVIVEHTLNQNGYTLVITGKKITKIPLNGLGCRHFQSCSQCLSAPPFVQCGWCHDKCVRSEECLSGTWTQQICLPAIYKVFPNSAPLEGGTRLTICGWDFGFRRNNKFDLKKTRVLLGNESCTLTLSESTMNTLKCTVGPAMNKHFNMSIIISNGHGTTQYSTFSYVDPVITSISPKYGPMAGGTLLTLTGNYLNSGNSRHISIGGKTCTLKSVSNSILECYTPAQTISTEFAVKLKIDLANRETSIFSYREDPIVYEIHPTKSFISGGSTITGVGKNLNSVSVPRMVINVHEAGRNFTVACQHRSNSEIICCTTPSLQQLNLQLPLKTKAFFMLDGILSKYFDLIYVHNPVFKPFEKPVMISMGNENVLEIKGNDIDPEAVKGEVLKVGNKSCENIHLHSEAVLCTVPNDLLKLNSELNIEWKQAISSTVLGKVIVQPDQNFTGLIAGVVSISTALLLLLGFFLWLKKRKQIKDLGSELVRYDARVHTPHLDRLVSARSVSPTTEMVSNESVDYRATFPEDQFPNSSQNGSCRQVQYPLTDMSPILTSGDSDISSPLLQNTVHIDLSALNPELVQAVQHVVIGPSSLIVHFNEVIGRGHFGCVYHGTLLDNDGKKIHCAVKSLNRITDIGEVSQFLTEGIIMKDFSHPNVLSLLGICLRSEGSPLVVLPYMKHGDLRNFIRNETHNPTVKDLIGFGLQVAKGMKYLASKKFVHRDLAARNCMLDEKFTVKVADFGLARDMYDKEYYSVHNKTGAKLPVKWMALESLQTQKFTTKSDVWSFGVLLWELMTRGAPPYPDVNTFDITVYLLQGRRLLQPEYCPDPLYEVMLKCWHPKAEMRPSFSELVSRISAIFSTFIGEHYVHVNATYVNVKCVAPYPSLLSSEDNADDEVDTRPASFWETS

[8] = system: breast, prostate, colon and pancreatic carcinoma xenografts; details: in vivo
[9] = system: Lyn kinase; details: knockout mice
[10] = not given; remark: listed apart in the source

Row | SMILES | reporter gene assay % inhibu at 5 μM [1] [%] | cell-free assay % inhibu at 62.5 μM [2] [%] | further results
1 | CC(C)(C)C1=NN(c2ccc(Cl)cc2)C(c2ccc(O)cc2)C1 (stereo not drawn) [1a] | 75.1 |  | 
2 | CC(C)(C)C1=NN(c2ccc(F)cc2)C(c2ccc(O)cc2)C1 (stereo not drawn) [1b] | 63.8 | 95.5 | 
3 | CC(C)(C)C1=NN(c2ccc(Br)cc2)C(c2ccc(O)cc2)C1 (stereo not drawn) [1c] | 58.4 | 93.2 | 
4 | Cc1ccc(N2N=C(C(C)(C)C)CC2c2ccc(O)cc2)cc1 (stereo not drawn) [1e] | 62.9 |  | 
5 | CC(C)(C)C1=NN(c2cccc(Cl)c2)C(c2ccc(O)cc2)C1 (stereo not drawn) [1h] | 64.6 | 96.8 | 
6 | CC(C)(C)C1=NN(c2cccc(C(F)(F)F)c2)C(c2ccc(O)cc2)C1 (stereo not drawn) [1j] | 89.7 | 96.1 | 
7 | Cc1cccc(N2N=C(C(C)(C)C)CC2c2ccc(O)cc2)c1 (stereo not drawn) [1k] | 73.7 | 91.7 | 
8 | Cc1ccc2nc(NCCN)c3ncc(C)n3c2c1.Cl [BMS-345541] |  |  | activity against LPS-induced NF-kB activation [3]: active
9 | O=C(NOCC(O)CO)c1ccc(F)c(F)c1Nc1ccc(I)cc1F (stereo not drawn) [Compound 35] |  |  | Sol (pH 6.5): 255, μg/mL
10 | O=C(Nc1nccs1)C(c1cc(F)ccc1O)N1Cc2ccc(-c3ccc(N4CCNCC4)cc3)cc2C1=O (stereo not drawn) [JBJ-04-125-02] |  |  | EGFR phosphorylation [4]: inhibited EGFR phosphorylation
11 | CO[C@H]1C[C@@H]2CC[C@@H](C)[C@@](O)(O2)C(=O)C(=O)N2CCCC[C@H]2C(=O)O[C@H]([C@H](C)C[C@@H]2CC[C@@H](O)[C@H](OC)C2)CC(=O)[C@H](C)/C=C(\C)[C@@H](O)[C@@H](OC)C(=O)[C@H](C)C[C@H](C)/C=C/C=C/C=C/1C [Sirolimus] |  |  | MERS-COV infection of Huh7 cells [5]: inhibits MERS-COV infection
12 | O=C1c2ccc(Nc3ccc(F)cc3F)cc2CCc2ccc(OC[C@H](O)CO)cc21 [Skepinone-B] |  |  | residence time [6]: 150 s
13 | O=C1NC(=O)[C@@H](c2cn3c4c(cccc24)CCC3)[C@@H]1c1c[nH]c2ccccc12 [Tivantinib, tivantinib] |  |  | selectivity for c-Met over other kinases tested [7]: 10-100 time; growth of carcinoma xenografts [8]: inhibition of growth
14 | Cc1cccc(Oc2cnc(=O)[nH]c2)c1 [Tolimidone, tolimidone] |  |  | glucose lowering when Lyn kinase was absent [9]: did not lower glucose
15 | CC(=O)Nc1cccc(-n2c(=O)n(C3CC3)c(=O)c3c(Nc4ccc(I)cc4F)n(C)c(=O)c(C)c32)c1 [Trametinib] |  |  | Absorption/distribution of an oral dose of tablet [10]: 72%
